Earlier results as cited in patent publication US12376586B2, “Microcapsules comprising cinmethyln in the core and a polyurea derived from diphenylmethane diisocyanate or an oligomer thereof” (BASF Agro B.V., priority 2017, dated 2025).

Assays:
[1] = at 20° C.
[2] = at 20° C.; remark: listed apart in the source

## Cc1ccccc1CO[C@@H]1C[C@]2(C(C)C)CC[C@@]1(C)O2 (racemic) [Cinmethylin, (±)-2-exo-(2-methylbenzyloxy)-1-methyl-4-isopropyl-7-oxabicyclo[2.2.1]heptane]
[1]
  solubility in water: 0,063 g·L^−1
[2]
  vapor pressure: 8.1·10^−3 Pa
